Data taken from publication PMC5484788, “Development of a common carp (Cyprinus carpio) pregnane X receptor (cPXR) transactivation reporter assay and its activation by azole fungicides and pharmaceutical chemicals” (Toxicology in Vitro, 2017).
Where two headings read alike, the source gives them in different places.

What was measured:
[1] = target: T1, hPXR (Homo sapiens, UniProt O75469); assay: human PXR (hPXR) luciferase transactivation reporter assay, pGL4.24-6xPXRE reporter, COS-7 cells; conditions: for maximal effect (Emax) hPXR, times that of the control: COS-7 cells, 44 h, relative to DMSO control
T1 sequence (O75469 1-473 isoform O75469-7): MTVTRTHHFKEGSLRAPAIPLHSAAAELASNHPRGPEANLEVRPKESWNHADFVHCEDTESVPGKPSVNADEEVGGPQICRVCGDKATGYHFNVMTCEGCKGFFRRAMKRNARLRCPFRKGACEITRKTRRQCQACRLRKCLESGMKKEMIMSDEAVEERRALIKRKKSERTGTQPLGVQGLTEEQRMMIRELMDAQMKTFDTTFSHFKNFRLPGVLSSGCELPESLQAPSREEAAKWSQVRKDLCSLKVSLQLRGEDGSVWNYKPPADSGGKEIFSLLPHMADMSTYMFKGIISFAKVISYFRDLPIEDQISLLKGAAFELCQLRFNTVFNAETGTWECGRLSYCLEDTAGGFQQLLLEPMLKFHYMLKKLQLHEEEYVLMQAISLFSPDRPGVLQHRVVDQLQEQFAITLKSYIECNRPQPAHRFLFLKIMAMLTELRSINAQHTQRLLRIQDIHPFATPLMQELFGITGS
Description: Human PXR (hPXR) clone cDNA was purchased from Promega. […] The following PCR protocol was employed: 21 cycles of denaturation at 98 °C for 10 s, annealing at 60 °C for 5 s and elongation at 72 °C for 15 s. The purified product was then ligated into the eukaryotic expression vector pcDNA3.1(+) (Invitrogen) using the correspondent restriction enzymes and T4 DNA ligase (Promega).
(§1) A reporter vector was constructed based on several variations of the PXR response element (PXRE; Fig. 1). The PXRE occurs either as a direct or everted repeat of the consensus motif […], spaced by between 3 and 8 nucleotides. The PXRE sequence created here was based on that reported in [Xie et al. (2000)]. […] To maximise reporter efficiency, a further PXRE motif was added either side of the previously generated long chain oligo using PCR. […] The following PCR conditions were employed: 21 cycles of denaturation at 98 °C for 10 s, annealing at 60 °C for 5 s and elongation at 72 °C for 30 s. After purification, and using the appropriate restriction enzymes KpnI and HindIII, the obtained fragment was subsequently ligated into the pGL4.24[luc2P/minP] vector (Promega) which contains the firefly (Photinus pyralis) luciferase (luc2P) gene, to create the pGL4.24-6xPXRE reporter construct.
(§2) The cells were maintained at subconfluent densities and sub-cultured when reaching 80% confluency.
(§3) For transfection assays, cells were seeded in 24-well plates at 5 × 10^4 cells well^− 1 in phenol-red free DMEM (supplemented with 10% charcoal/dextran-treated foetal bovine serum (Hyclone). After 24 h, the cells were transiently transfected with 200 ng of either pcDNA3.1(+)/cPXR or pcDNA3.1(+)/hPXR, 400 ng of reporter construct (either MMTV/luc2/pGL4 (Promega) or pGL4.24-6xPXRE) and 100 ng of pRL-TK (driving the Renilla reniformis luciferase gene as an internal control to normalise for variations in transfection efficiency) using Fugene HD transfection reagent (Promega) in serum-free medium according to the manufacturer's protocol. Four hours after transfection, cells were treated with PXR agonists (see below). Forty-eight hours after transfection, cells were lysed and the luciferase activities of the cells were measured by a chemiluminescence assay with Dual-Luciferase Reporter Assay System (Promega) according to the manufacturer's instructions. Luminescence was measured using an Infinite 200 Pro plate reader (Tecan, Grödig, Austria). Promoter activity was calculated as firefly (Photinus pyralis)-luciferase activity/sea pansy (R. reniformis)-luciferase activity. All transfections were done at least three times, employing triplicate sample points in each experiment.
(§4) In addition to the pGL4.24-6xPXRE reporter construct, a commercially available MMTV/luc2/pGL4 reporter vector (Promega) was tested as a reporter plasmid (i.e. for PXRE function), as it is known to contain various nuclear receptor response elements in the promoter region.

[2] = target: cPXR (Cyprinus carpio, UniProt A0A1P8P0E9); assay: carp PXR (cPXR) luciferase transactivation reporter assay, pGL4.24-6xPXRE reporter, COS-7 cells; conditions: for transactivation of cPXR (result in words): concentration-response 10^-11 to 10^-5 M, pGL4.24-6xPXRE reporter
Sequence of cPXR (A0A1P8P0E9 entry or part of it): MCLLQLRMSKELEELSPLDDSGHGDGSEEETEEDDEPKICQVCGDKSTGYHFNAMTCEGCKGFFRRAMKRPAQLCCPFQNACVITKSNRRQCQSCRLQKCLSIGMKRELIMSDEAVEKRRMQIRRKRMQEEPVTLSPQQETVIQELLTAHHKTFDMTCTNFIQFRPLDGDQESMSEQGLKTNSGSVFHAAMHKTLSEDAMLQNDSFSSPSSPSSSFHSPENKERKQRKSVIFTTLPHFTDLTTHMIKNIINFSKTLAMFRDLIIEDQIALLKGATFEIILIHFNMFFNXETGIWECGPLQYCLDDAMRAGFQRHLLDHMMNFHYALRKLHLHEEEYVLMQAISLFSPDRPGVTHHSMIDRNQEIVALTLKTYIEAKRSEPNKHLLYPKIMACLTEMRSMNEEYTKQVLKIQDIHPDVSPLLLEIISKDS
Description: For this, cDNA was reverse transcribed from 1 μg of carp liver total RNA as described above and amplified using the Advantage 2 DNA polymerase mix (Clontech) according to the manufacturer's instructions. The resulting PCR product was purified and sequenced to confirm the full sequence length and sub-cloned into pGEM-T Easy vector (Promega) following the manufacturer's recommendations. Plasmid DNA was isolated using the Wizard Plus SV minipreps DNA Purification system (Promega) according to manufacturer's instructions. Using the BamHI and EcoRV sites, the cPXR sequences was subsequently ligated into the eukaryotic expression vector pcDNA3.1(+) (Invitrogen) using the correspondent restriction enzymes (New England Biolabs, Hitchin, UK) and T4 DNA ligase (Promega).
as §1, §2, §3, §4

[3] = tested on: FHM PXR; set-up: method as in Milnes et al., 2008; conditions: exposure to 50 μM; ref Milnes et al., 2008; cited from earlier work
[4] = tested on: zebrafish PXR; conditions: ref Bainy et al., 2013, cited from earlier work
[5] = tested on: PXR from the pufferfish; conditions: 50 μM; ref Milnes et al., 2008; cited from earlier work
[6] = tested on: COS-7 cells; assay: toxicity to COS-7 cells in the transactivation assays (inhibited cell growth); assay type: cell-based; conditions: 100 μM, in both cPXR and hPXR assays
[7] = concentration-response 10^-11 to 10^-5 M, pGL4.24-6xPXRE reporter

Compound | transactivation of hPXR (result in words) [1, 7] | transactivation of cPXR (result in words) [2] | further results
CC(C)NCC(O)COc1ccc(CC(N)=O)cc1 (stereo not shown) [ATN, atenolol] | did not induce transactivation | did not induce transactivation | 
CC(C)(Oc1ccc(Cl)cc1)C(=O)O [CFA, clofibric acid] | did not induce transactivation | did not induce transactivation | 
Clc1ccccc1C(c1ccccc1)(c1ccccc1)n1ccnc1 [CTZ, clotrimazole] |  |  | FHM PXR up-regulation [3]: up to 35 times; zebrafish PXR up-regulation above controls ([4]; exposure concentrations between 0.5 and 50 μM, Milnes et al., 2008, Moore et al., 2000): 8 fold; lower activation of zebrafish full-length PXR compared with zebrafish PXR-LBD construct [4]: 90%; EC50 [1]: 0.88 µM; maximal effect (Emax) hPXR, times that of the control ([1]; pGL4.24-6xPXRE reporter): 4.8 x-fold
O=C(O)Cc1ccccc1Nc1c(Cl)cccc1Cl [DIC, diclofenac] |  | did not induce transactivation | transactivation of hPXR (result in words) [1]: did not induce transactivation
C#C[C@]1(O)CC[C@H]2[C@@H]3CCc4cc(O)ccc4[C@H]3CC[C@@]21C [EE2, 17α-ethinyloestradiol] |  | activated | concentration at which transactivation of hPXR was induced [1]: 10 µM; transactivation of hPXR (result in words) [1]: activate hPXR; concentration at which transactivation of cPXR was induced ([2]; only concentration giving induction, range 10^-11 to 10^-5 M): 10 µM
Cc1ccc(C)c(OCCCC(C)(C)C(=O)O)c1 [GEM, gemfibrozil] | did not induce transactivation | did not induce transactivation | 
CC(C)Cc1ccc(C(C)C(=O)O)cc1 (stereo not shown) [IBU, ibuprofen] |  | did not induce transactivation | 
CC(=O)N1CCN(c2ccc(OCC3COC(Cn4ccnc4)(c4ccc(Cl)cc4Cl)O3)cc2)CC1 (stereo not shown) [KTZ, ketoconazole] | had no effect | had no effect | 
Clc1ccc(COC(Cn2ccnc2)c2ccc(Cl)cc2Cl)c(Cl)c1 (stereo not shown) [MCZ, miconazole] | induced transactivational activity |  | 
CCCC1COC(Cn2cncn2)(c2ccc(Cl)cc2Cl)O1 (stereo not shown) [PCZ, propiconazole] | induced transactivational activity | induced transactivational activity | EC50 [2]: 0.213 µM
CC(C)NCC(O)COc1cccc2ccccc12 (stereo not shown) [Propranolol, propranolol] |  |  | EC50 [1]: 0.044 µM
CO[C@H]1/C=C/O[C@@]2(C)Oc3c(C)c(O)c4c(O)c(c(/C=N/N5CCN(C)CC5)c(O)c4c3C2=O)NC(=O)/C(C)=C\C=C\[C@H](C)[C@H](O)[C@@H](C)[C@@H](O)[C@@H](C)[C@H](OC(C)=O)[C@@H]1C [RIF, rifampicin] |  | not activated | activation of hPXR compared with control, single concentration ([1]; 1 μM (10^-6 M), pGL4.24-6xPXRE reporter, reporter plasmid comparison): significant activation; maximal effect (Emax) hPXR, times that of the control ([1]; pGL4.24-6xPXRE reporter): 6.4 x-fold; activation of pufferfish PXR [5]: activate
CC/C(=C(\c1ccccc1)c1ccc(OCCN(C)C)cc1)c1ccccc1 [TAM, tamoxifen] |  | had no effect | toxicity to COS-7 cells (inhibited cell growth) [6]: toxic
